The results in this text go back to ChEMBL document CHEMBL3621069 (Bioorg Med Chem Lett, 2015).

Data set [1] addresses T1, Tyrosine-protein kinase ZAP-70 (Homo sapiens, UniProt P43403).
T1 sequence (P43403 whole entry): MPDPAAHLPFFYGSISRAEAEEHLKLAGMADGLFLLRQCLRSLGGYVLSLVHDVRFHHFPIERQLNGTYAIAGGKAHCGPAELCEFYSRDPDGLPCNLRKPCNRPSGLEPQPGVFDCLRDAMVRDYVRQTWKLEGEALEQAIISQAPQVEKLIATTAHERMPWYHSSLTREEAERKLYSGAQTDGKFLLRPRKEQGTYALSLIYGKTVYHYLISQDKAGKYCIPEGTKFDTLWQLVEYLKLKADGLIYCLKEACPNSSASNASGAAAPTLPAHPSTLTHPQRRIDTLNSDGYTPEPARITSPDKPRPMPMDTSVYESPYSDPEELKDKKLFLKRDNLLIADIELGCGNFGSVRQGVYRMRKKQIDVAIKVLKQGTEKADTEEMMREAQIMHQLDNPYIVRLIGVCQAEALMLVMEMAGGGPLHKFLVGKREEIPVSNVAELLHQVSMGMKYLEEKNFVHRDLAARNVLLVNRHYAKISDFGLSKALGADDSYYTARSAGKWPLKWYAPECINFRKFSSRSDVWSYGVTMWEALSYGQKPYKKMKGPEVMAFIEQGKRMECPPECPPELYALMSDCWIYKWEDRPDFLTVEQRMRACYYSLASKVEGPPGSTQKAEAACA
Description: Inhibition of purified full-length human ZAP70 pre-incubated for 30 mins at room temperature before UlighTM-PolyGT peptide substrate addition and measured 1 hr after substrate addition by cell free kinase assay.

Data set [2] deals with Proto-oncogene tyrosine-protein kinase receptor Ret (Homo sapiens, UniProt P07949). Description: Inhibition of human RET pre-incubated for 30 mins at room temperature before substrate addition and measured 1 hr after substrate addition by cell free kinase assay.
The target in data set [3] is Mitogen-activated protein kinase kinase kinase 9 (Homo sapiens) (UniProt P80192). Description: Inhibition of human MLK1 at 0.1 uM.
Data set [4] has the same target. Description: Inhibition of human MLK1 at 0.01 uM.
Data set [5] can be described thus: Apparent permeability from basolateral to apical side in human Caco2 cells. As to conditions: Caco-2. The class given is ADME, cell-based. Background: Caco-2 cells form a polarised layer with tight junctions and transporters.
A further data set deals with Plasma. Description: Unbound fraction in human plasma. The class given is ADME, cell-free.
Data set [6] concerns Salmonella typhimurium. Description: Genotoxicity in Salmonella typhimurium TA100 at 5000 µg/plate in absence of liver S9 fraction by Ames test. The class given is toxicity, organism-based. To be noted: salmonella enterica subsp. enterica serovar typhimurium. On the technique in general: In the Ames test, an excess of revertant colonies over the control signals mutagenicity.

The subject of data set [7] is Salmonella typhimurium. Description: Mutagenicity in Salmonella typhimurium TA100 at 5000 µg/plate in absence of liver S9 fraction by Ames test. The class given is toxicity, organism-based. To be noted: salmonella enterica subsp. enterica serovar typhimurium.
The subject of data set [8] is Salmonella typhimurium. Description: Mutagenicity in Salmonella typhimurium TA1535 at 5000 µg/plate in absence of liver S9 fraction by Ames test. The class given is toxicity, organism-based. To be noted: salmonella enterica subsp. enterica serovar typhimurium.
The test system of data set [9] is Salmonella typhimurium. Description: Mutagenicity in Salmonella typhimurium TA1537 at 5000 µg/plate in presence of liver S9 fraction by Ames test. The format is toxicity, organism-based. As to conditions: salmonella enterica subsp. enterica serovar typhimurium.
Data set [10] in a line: Terminal half life in Sprague-Dawley rat at 10 mg/kg, po. The class given is ADME, organism-based. To be noted: in vivo, read-out: beta t1/2 (converted).
A short description of data set [11]: Clearance in dog at 5 mg/kg, iv. The format is ADME, organism-based, Canis lupus familiaris. As to conditions: in vivo.
Data set [12] in a line: Volume of distribution at steady state in dog at 5 mg/kg, iv. The class given is ADME, organism-based, Canis lupus familiaris. As to conditions: in vivo, read-out: Vdss.
Data set [13] is described as follows: Half life in dog at 5 mg/kg, iv. The class given is ADME, organism-based, Canis lupus familiaris. To be noted: in vivo.
Data set [14] in a line: AUClast in dog at 5 mg/kg, iv. The format is ADME, organism-based, Canis lupus familiaris. Details: dose 5 mg/kg, time 0 - last, route intravenous. As to conditions: in vivo.
The nature of data set [15]: AUClast in dog at 10 mg/kg, po. The format is ADME, organism-based, Canis lupus familiaris. Details: dose 10 mg/kg, route oral, time 0 - last. To be noted: in vivo.
A short description of data set [16]: Oral bioavailability in dog at 10 mg/kg. The class given is ADME, organism-based, Canis lupus familiaris. As to conditions: in vivo.
Another data set concerns Mus musculus. Description: Anti-arthritic activity in DBA1/J mouse model of collagen-induced arthritis assessed as reduction in arthritis clinical scores at 30 mg/kg, po administered orally continued once daily and twice daily through study. The format is functional.
Data set [17] has as its system Epidermal growth factor receptor (Homo sapiens), P00533 [T790M]. Description: Inhibition of human EGFR T790M mutant at 0.1 uM. The format is protein assay.
Data set [18] relates to Epidermal growth factor receptor (Homo sapiens), P00533 [L858R,T790M]. Description: Inhibition of human EGFR T790M/L858R mutant at 0.1 uM. The class given is protein assay.
Data set [19] relates to Receptor-type tyrosine-protein kinase FLT3 (Homo sapiens), P36888 [D835Y]. Description: Inhibition of human Flt3 D835Y mutant at 0.1 uM.
Data set [20] addresses Serine/threonine-protein kinase PLK3 (Homo sapiens) (UniProt Q9H4B4). Description: Inhibition of human Plk3 at 0.1 uM.
Data set [21] addresses Tyrosine-protein kinase Fgr (Homo sapiens) (UniProt P09769). Description: Inhibition of human Fgr at 0.1 uM.
Data set [22] concerns the target Tyrosine-protein kinase Fyn (Homo sapiens) (UniProt P06241). Description: Inhibition of human Fyn (unknown origin) at 0.1 uM.
The target of data set [23] is Tyrosine-protein kinase Lck (Homo sapiens) (UniProt P06239). Description: Inhibition of human Lck at 0.1 uM.
The target in data set [24] is Tyrosine-protein kinase Lyn (Homo sapiens) (UniProt P07948). Description: Inhibition of human Lyn at 0.1 uM.
In data set [25] the target is Proto-oncogene tyrosine-protein kinase Src (Homo sapiens) (UniProt P12931). Description: Inhibition of human Src (1 to 530 residues) at 0.1 uM.
For data set [26], the target named is Tyrosine-protein kinase Blk (Homo sapiens) (UniProt P51451). Description: Inhibition of human Blk at 0.1 uM.
Data set [27] relates to Tyrosine-protein kinase ABL1 (Homo sapiens), P00519 [Q252H]. Description: Inhibition of human Abl Q252H mutant at 0.01 uM.
The test system of data set [28] is Epidermal growth factor receptor (Homo sapiens), P00533 [T790M]. Description: Inhibition of human EGFR T790M mutant at 0.01 uM. The format is protein assay.
Data set [29] deals with Epidermal growth factor receptor (Homo sapiens), P00533 [L858R,T790M]. Description: Inhibition of human EGFR T790M/L858R mutant at 0.01 uM. The format is protein assay.
Data set [30] concerns Receptor-type tyrosine-protein kinase FLT3 (Homo sapiens), P36888 [D835Y]. Description: Inhibition of human Flt3 D835Y mutant at 0.01 uM.
The target of data set [31] is Serine/threonine-protein kinase PLK3 (Homo sapiens) (UniProt Q9H4B4). Description: Inhibition of human Plk3 at 0.01 uM.
Data set [32] concerns Proto-oncogene tyrosine-protein kinase receptor Ret (Homo sapiens), P07949 [V804L]. To be noted: 0.1 uM.
Description: Inhibition of human Ret V804L mutant at 0.1 uM
Data set [33] concerns Proto-oncogene tyrosine-protein kinase receptor Ret (Homo sapiens), P07949 [V804M]. To be noted: 0.1 uM.
Description: Inhibition of human Ret V804M mutant at 0.1 uM
Data set [34] has as its system Proto-oncogene tyrosine-protein kinase receptor Ret (Homo sapiens), P07949 [V804L]. As to conditions: 0.01 uM.
Description: Inhibition of human Ret V804L mutant at 0.01 uM
In data set [35] the test system is Proto-oncogene tyrosine-protein kinase receptor Ret (Homo sapiens), P07949 [V804M]. To be noted: 0.01 uM.
Description: Inhibition of human Ret V804M mutant at 0.01 uM
The target in data set [36] is Tyrosine-protein kinase SYK (Homo sapiens, UniProt P43405). Description: Inhibition of purified full-length human SYK pre-incubated for 30 mins at room temperature before Ulight-TK peptide substrate addition and measured 1 hr after substrate addition by cell free kinase assay.
The target in data set [37] is Vascular endothelial growth factor receptor 2 (Homo sapiens, UniProt P35968). Description: Inhibition of KDR (unknown origin) pre-incubated for 30 mins at room temperature before substrate addition and measured 1 hr after substrate addition by cell free kinase assay.

Proto-oncogene tyrosine-protein kinase receptor Ret (Homo sapiens), P07949 [V804L], sequence (P07949 whole entry V804L): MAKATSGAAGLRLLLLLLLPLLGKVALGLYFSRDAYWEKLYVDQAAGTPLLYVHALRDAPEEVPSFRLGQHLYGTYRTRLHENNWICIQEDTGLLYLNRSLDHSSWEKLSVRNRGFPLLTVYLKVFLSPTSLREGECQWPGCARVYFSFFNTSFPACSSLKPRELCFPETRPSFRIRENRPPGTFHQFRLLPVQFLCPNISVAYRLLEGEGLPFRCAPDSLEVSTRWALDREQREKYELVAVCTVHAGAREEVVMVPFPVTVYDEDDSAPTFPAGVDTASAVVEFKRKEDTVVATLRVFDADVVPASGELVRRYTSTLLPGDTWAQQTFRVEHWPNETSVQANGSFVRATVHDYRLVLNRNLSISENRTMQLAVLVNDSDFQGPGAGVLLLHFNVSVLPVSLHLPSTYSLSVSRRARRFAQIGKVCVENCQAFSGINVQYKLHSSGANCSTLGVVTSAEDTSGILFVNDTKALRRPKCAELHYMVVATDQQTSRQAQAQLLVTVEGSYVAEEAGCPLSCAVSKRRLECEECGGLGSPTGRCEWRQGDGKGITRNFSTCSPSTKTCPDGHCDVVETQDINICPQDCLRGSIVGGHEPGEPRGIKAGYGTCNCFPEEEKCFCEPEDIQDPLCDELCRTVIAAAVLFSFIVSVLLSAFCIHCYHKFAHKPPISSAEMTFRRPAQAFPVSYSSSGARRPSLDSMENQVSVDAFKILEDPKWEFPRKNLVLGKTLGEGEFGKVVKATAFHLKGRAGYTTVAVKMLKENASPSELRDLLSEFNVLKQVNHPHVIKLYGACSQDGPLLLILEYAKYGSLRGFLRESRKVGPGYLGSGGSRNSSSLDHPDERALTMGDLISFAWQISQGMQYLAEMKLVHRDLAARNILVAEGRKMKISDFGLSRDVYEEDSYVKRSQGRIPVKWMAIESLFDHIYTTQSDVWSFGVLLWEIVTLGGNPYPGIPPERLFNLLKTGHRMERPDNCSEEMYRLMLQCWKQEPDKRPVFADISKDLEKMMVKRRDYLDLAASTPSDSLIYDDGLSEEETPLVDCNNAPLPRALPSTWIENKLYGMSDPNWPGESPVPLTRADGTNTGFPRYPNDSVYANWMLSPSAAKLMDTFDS
Proto-oncogene tyrosine-protein kinase receptor Ret (Homo sapiens), P07949 [V804M], sequence (P07949 whole entry V804M): as the sequence (P07949 whole entry V804L) above, with L804M counted along it
Epidermal growth factor receptor (Homo sapiens), P00533 [L858R,T790M], sequence (P00533 whole entry T790M/L858R, looked up): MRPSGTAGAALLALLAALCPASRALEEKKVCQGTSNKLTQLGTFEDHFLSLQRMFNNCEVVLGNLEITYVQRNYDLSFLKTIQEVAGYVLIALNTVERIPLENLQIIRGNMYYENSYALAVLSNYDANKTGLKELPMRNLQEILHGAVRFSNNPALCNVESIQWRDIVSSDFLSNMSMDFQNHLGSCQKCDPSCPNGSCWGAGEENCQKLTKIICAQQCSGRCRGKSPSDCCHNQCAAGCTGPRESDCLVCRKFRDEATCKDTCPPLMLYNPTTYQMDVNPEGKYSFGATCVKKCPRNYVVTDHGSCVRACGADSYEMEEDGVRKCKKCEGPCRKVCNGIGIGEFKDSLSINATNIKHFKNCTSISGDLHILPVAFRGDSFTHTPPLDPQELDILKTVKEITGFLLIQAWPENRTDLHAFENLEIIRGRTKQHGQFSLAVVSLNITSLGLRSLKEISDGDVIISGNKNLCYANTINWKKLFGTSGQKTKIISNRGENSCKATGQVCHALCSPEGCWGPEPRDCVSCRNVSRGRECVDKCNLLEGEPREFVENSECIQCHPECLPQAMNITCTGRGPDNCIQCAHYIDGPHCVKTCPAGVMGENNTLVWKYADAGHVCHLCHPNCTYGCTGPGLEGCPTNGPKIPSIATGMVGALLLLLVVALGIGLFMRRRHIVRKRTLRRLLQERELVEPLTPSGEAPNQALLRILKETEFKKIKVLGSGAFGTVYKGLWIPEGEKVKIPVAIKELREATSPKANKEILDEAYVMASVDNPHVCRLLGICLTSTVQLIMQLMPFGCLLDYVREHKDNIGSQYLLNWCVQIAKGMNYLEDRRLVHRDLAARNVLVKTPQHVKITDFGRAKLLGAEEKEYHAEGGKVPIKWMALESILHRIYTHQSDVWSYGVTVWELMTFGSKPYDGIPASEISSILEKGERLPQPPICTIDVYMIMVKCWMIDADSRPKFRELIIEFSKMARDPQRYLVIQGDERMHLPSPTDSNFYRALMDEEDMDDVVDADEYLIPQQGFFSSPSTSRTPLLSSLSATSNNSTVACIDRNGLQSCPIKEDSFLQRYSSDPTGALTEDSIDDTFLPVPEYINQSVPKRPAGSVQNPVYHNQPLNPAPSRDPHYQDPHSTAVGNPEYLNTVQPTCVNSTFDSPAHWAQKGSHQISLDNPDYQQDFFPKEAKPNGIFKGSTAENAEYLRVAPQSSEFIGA
Mitogen-activated protein kinase kinase kinase 9 (Homo sapiens), sequence (P80192 whole entry, looked up): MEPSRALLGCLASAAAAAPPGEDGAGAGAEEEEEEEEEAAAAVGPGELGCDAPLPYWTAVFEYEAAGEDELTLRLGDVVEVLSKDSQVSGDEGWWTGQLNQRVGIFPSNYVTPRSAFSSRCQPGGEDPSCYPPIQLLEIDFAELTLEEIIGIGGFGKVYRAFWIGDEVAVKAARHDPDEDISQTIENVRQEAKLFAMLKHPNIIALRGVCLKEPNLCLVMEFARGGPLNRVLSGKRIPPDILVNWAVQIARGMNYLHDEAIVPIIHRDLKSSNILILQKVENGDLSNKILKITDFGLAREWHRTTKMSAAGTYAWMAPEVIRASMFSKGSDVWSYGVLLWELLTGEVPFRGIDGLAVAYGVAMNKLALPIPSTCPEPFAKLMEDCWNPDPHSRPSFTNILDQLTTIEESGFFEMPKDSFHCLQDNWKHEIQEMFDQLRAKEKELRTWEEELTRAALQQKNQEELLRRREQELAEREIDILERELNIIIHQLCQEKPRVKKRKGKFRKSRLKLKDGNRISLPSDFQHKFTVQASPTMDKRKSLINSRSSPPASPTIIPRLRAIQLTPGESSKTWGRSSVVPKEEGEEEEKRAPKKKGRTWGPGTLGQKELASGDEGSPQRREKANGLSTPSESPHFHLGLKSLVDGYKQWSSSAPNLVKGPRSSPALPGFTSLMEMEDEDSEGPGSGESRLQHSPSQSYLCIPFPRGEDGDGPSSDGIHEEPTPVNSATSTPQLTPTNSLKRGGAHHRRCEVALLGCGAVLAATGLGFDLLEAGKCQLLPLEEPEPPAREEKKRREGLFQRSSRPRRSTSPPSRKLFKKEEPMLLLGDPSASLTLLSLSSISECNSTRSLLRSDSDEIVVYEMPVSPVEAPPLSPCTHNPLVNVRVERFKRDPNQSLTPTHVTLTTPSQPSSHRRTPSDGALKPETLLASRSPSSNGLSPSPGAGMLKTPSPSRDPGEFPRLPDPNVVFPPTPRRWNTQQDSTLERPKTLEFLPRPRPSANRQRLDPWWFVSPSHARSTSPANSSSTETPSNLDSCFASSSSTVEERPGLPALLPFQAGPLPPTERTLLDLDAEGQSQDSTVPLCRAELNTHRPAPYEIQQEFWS
Epidermal growth factor receptor (Homo sapiens), P00533 [T790M], sequence (P00533 whole entry T790M): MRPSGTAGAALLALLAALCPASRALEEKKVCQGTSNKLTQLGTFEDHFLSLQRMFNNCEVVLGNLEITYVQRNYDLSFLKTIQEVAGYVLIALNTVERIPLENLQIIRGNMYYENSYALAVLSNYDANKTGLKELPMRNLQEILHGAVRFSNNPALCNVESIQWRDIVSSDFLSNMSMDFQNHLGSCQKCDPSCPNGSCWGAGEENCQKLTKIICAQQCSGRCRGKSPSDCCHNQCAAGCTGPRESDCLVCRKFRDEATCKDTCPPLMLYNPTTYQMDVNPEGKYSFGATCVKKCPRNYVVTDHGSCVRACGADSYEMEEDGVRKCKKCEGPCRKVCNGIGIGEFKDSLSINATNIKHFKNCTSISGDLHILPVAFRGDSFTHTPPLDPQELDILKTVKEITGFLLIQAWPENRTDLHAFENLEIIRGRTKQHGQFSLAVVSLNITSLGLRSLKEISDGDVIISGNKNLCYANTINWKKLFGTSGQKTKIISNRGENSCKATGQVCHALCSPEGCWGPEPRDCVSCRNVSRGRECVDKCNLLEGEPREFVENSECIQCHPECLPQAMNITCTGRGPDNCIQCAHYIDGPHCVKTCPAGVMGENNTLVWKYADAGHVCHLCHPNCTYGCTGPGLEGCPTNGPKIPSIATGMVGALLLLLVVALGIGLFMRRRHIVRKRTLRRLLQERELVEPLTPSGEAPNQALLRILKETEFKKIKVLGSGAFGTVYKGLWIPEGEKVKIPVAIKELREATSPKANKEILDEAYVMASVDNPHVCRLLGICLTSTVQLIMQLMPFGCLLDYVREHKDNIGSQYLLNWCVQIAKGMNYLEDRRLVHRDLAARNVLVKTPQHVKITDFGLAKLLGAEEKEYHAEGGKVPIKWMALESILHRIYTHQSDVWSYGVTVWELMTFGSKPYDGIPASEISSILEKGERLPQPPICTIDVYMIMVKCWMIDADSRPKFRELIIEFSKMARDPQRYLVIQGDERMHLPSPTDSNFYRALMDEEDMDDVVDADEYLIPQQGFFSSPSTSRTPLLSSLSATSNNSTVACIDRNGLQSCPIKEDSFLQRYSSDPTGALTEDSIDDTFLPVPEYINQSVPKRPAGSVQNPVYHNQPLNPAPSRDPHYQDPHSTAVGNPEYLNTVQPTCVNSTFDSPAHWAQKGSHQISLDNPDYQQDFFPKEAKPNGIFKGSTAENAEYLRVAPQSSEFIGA
Proto-oncogene tyrosine-protein kinase receptor Ret, sequence (P07949 whole entry): as the sequence (P07949 whole entry V804L) above, with L804V counted along it

By IC50 is commonly meant the point on the concentration scale where inhibition reaches its midpoint. The inhibition is the drop in the measured response relative to a control, in per cent. A lower inhibition goes with little suppression. The Papp B→A is how fast a substance crosses the layer from the basolateral side. One may read the clearance as the rate of elimination divided by the concentration. By AUC(0-t) is commonly meant the area under the concentration-time curve up to a stated or last time point. High values mean more exposure, low ones less exposure. As a reminder, the bioavailability is the share of a dose that reaches the circulation, judged against a reference dose that is usually intravenous. The low end stands for poor availability, the high end for good availability. The term inhibition in vivo denotes the drop in the measured response relative to a control, in per cent. Turning to `Cc1nn(-c2ccnc(Nc3ccc4c(c3)c(Cl)c(C)n4C)n2)cc1CN1CC(O)C1`, the half-maximal inhibitory concentration (IC50) in data set [1] came out at 53800 nM; in [2], 67.8 nM. For the same compound, the inhibition in data set [3] was 91%; in data set [4], 44%; in data set [17], over 70%; in data set [18], over 70%; in [19] it was over 70%; in data set [20], over 70%. The inhibition in data set [21], in data set [22], in [23], in [24], in [25] and in [26] was under 25% each time. For the same compound, the inhibition is under 50% in data set [27]; under 50% in data set [28]; under 50% in data set [29]; under 50% in [30]; under 50% in data set [31]; over 70% in data set [32]. The values for the inhibition in [33], in [34] and in [35] were over 70%, under 50% and under 50%, respectively. The Papp B→A in data set [5] was determined as 3.8 ×10⁻⁶ cm/s. In the data set on Plasma, this compound registered a Fu of under 0.4%. The Activity result in the data set with Salmonella typhimurium [6], in the data set with Salmonella typhimurium [7], in the data set on Salmonella typhimurium [8] and in the data set on Salmonella typhimurium [9] was “Non-toxic” each time. In addition, the half-life is 3.6 h in data set [10] and 4.6 h in [13]. The compound further yielded a clearance in data set [11] of 40.4 mL/min/kg. Also, in data set [12], the Vd amounted to 7.1 L/kg. Further, the AUC(0-t) in [14] worked out at 2090 ng·h/mL; in data set [15] it was 1940 ng·h/mL. Moreover, the bioavailability in data set [16] is 46.4%. Besides, the inhibition in vivo at 30 mg/kg in the data set on Mus musculus worked out at 50%.
For `Cc1nn(-c2ccnc(Nc3ccc4c(c3)c(C)c(C)n4C)n2)cc1CN1CC(O)C1`, the IC50 was 1.7 nM in data set [36], 996000 nM in [1] and 653 nM in data set [37]. In addition, in [5], the Papp B→A turned out to be 9.9 ×10⁻⁶ cm/s. In the data set with Plasma, this compound gave a Fu of under 0.4%. Also, the Activity entry in the data set on Salmonella typhimurium [6], with Salmonella typhimurium [7], with Salmonella typhimurium [8] and with Salmonella typhimurium [9] was “Non-toxic” in each case. Further, the half-life in data set [10] is 3.4 h.
